In patent US8470822B2, “Folate mimetics and folate-receptor binding conjugates thereof” (Purdue Research Foundation, priority 2001, dated 2013):

Test system: folate-receptor-positive human KB cell tumor xenografts
Test: Biodistribution of 111In radiotracer in KB tumor-bearing athymic mice after intravenous administration
Format: in vivo
Details: for Percentage of Injected 111In Dose Per Organ (Tissue): Muscle: muscle assumed 42% of body mass
Description: Our primary animal model for evaluation of the biodistribution and pharmacokinetics of folate-receptor-targeted radiopharmaceuticals has been athymic mice bearing subcutaneously implanted folate-receptor-positive human KB cell tumors. […] After 3 weeks on folate-free diet, mouse serum folate levels drop to 25±7 nM from the initial 720±260 nM serum folate level when the animals are fed normal rodent chow. This dietary intervention is believed to be a reasonable manipulation of the animal model, since the mice would have serum folate levels only slightly higher than the folate concentration of normal human serum. Thus, in these mouse biodistribution studies the radiotracer is competing for tumor folate receptors with physiologically relevant concentrations of endogenous unlabeled serum folate.
The substantial retention of ^111In in the kidneys is fully consistent with the binding of ^111In-CYK4-013 to tissue folate receptors, since the renal proximal tubule is a known normal tissue site of folate receptor expression. […] The behavior of the ^111In-CYK4-013 radiopharmaceutical in this animal model (Table 2) is very similar to that observed for ^111In-DTPA-Folate (Table 3).
Results. Similar to ^111In-DTPA-Folate, ^111In-CYK4-013 selectively localized in the folate-receptor-positive tumor xenografts, and afforded prolonged tumor retention of ^111In (5.4±0.8; 5.5±1.1; and 3.6±0.6% ID/g at 1 hour, 4 hours, and 24 hours, respectively) (Table 2). […] Blockable binding was also observed in the kidneys, where the folate receptor occurs in the proximal tubules.

[1] = 4 Hours, Blocked: co-injection of folic acid dihydrate 4.1 ± 0.4 mg/kg
[2] = 24 Hours after intravenous administration

Nc1nc(O)c2nc(CNc3ccc(C(=O)NCCOCCOCCNC(=O)CN(CCN(CCN(CC(=O)O)CC(=O)O)CC(=O)O)CC(=O)O)cc3)cnc2n1.[111In+3] [^111In-CYK4-013]
Percentage of Injected 111In Dose Per Gram (Tissue Wet Mass): Blood [1]: 0.016 ± 0.010 % ID/g
Percentage of Injected 111In Dose Per Gram (Tissue Wet Mass): Heart [1]: 0.015 ± 0.010 % ID/g
Percentage of Injected 111In Dose Per Gram (Tissue Wet Mass): Kidney (one) [1]: 0.90 ± 0.59 % ID/g
Percentage of Injected 111In Dose Per Gram (Tissue Wet Mass): Liver & Gall Bladder [1]: 0.051 ± 0.029 % ID/g
Percentage of Injected 111In Dose Per Gram (Tissue Wet Mass): Lungs [1]: 0.041 ± 0.027 % ID/g
Percentage of Injected 111In Dose Per Gram (Tissue Wet Mass): Muscle [1]: 0.080 ± 0.057 % ID/g
Percentage of Injected 111In Dose Per Gram (Tissue Wet Mass): Spleen [1]: 0.028 ± 0.017 % ID/g
Percentage of Injected 111In Dose Per Gram (Tissue Wet Mass): Stomach, Intestines & Contents [1]: 1.7 ± 1.1 % ID/g
Percentage of Injected 111In Dose Per Organ (Tissue): Blood [1]: 0.025 ± 0.015 Percentage of Injected 111In D
Percentage of Injected 111In Dose Per Organ (Tissue): Heart [1]: 0.0023 ± 0.0016 Percentage of Injected 111In D
Percentage of Injected 111In Dose Per Organ (Tissue): Kidney (one) [1]: 0.23 ± 0.15 Percentage of Injected 111In D
Percentage of Injected 111In Dose Per Organ (Tissue): Liver & Gall Bladder [1]: 0.074 ± 0.044 Percentage of Injected 111In D
Percentage of Injected 111In Dose Per Organ (Tissue): Lungs [1]: 0.0082 ± 0.0051 Percentage of Injected 111In D
Percentage of Injected 111In Dose Per Organ (Tissue): Spleen [1]: 0.0049 ± 0.0029 Percentage of Injected 111In D
Percentage of Injected 111In Dose Per Organ (Tissue): Stomach, Intestines & Contents [1]: 4.6 ± 2.8 Percentage of Injected 111In D
Percentage of Injected 111In Dose Per Organ (Tissue): Tumor [1]: 0.0094 ± 0.0061 Percentage of Injected 111In D
Tumor/blood ratio [1]: 7.5 ± 2.4
Tumor/kidney ratio [1]: 0.12 ± 0.03
Tumor/liver ratio [1]: 2.2 ± 0.6
Tumor/muscle ratio [1]: 1.5 ± 0.7
Percentage of Injected 111In Dose Per Gram (Tissue Wet Mass): Tumor (4 Hours, Blocked: co-injection of folic acid dihydrate 4.1 ± 0.4 mg/kg, 0.4 mg/kg): 0.12±0.07 % ID/g
Percentage of Injected 111In Dose Per Organ (Tissue): Muscle [1]: 1.0 ± 0.7 Percentage of Injected 111In D
Percentage of Injected 111In Dose Per Gram (Tissue Wet Mass): Blood [2]: 0.035 ± 0.002 % ID/g
Percentage of Injected 111In Dose Per Gram (Tissue Wet Mass): Heart [2]: 1.2 ± 0.5 % ID/g
Percentage of Injected 111In Dose Per Gram (Tissue Wet Mass): Kidney (one) [2]: 105 ± 7 % ID/g
Percentage of Injected 111In Dose Per Gram (Tissue Wet Mass): Liver & Gall Bladder [2]: 1.2 ± 0.6 % ID/g
Percentage of Injected 111In Dose Per Gram (Tissue Wet Mass): Lungs [2]: 0.72 ± 0.21 % ID/g
Percentage of Injected 111In Dose Per Gram (Tissue Wet Mass): Muscle [2]: 1.9 ± 0.6 % ID/g
Percentage of Injected 111In Dose Per Gram (Tissue Wet Mass): Spleen [2]: 0.27 ± 0.08 % ID/g
Percentage of Injected 111In Dose Per Gram (Tissue Wet Mass): Stomach, Intestines & Contents [2]: 1.2 ± 0.2 % ID/g
Percentage of Injected 111In Dose Per Gram (Tissue Wet Mass): Tumor [2]: 3.6±0.6 % ID/g
Percentage of Injected 111In Dose Per Organ (Tissue): Blood [2]: 0.055 ± 0.002 Percentage of Injected 111In D
Percentage of Injected 111In Dose Per Organ (Tissue): Heart [2]: 0.18 ± 0.06 Percentage of Injected 111In D
Percentage of Injected 111In Dose Per Organ (Tissue): Kidney (one) [2]: 26.8 ± 2.7 Percentage of Injected 111In D
Percentage of Injected 111In Dose Per Organ (Tissue): Liver & Gall Bladder [2]: 1.7 ± 0.9 Percentage of Injected 111In D
Percentage of Injected 111In Dose Per Organ (Tissue): Lungs [2]: 0.34 ± 0.03 Percentage of Injected 111In D
Percentage of Injected 111In Dose Per Organ (Tissue): Spleen [2]: 0.055 ± 0.017 Percentage of Injected 111In D
Percentage of Injected 111In Dose Per Organ (Tissue): Stomach, Intestines & Contents [2]: 3.3 ± 0.6 Percentage of Injected 111In D
Percentage of Injected 111In Dose Per Organ (Tissue): Tumor [2]: 0.42 ± 0.4 Percentage of Injected 111In D
Tumor/blood ratio [2]: 105 ± 20
Tumor/kidney ratio [2]: 0.035 ± 0.008
Tumor/liver ratio [2]: 3.7 ± 1.4
Tumor/muscle ratio [2]: 2.0 ± 0.6
Percentage of Injected 111In Dose Per Organ (Tissue): Muscle [2]: 23.1 ± 7.0 Percentage of Injected 111In D
primary whole-body clearance pathway (athymic mice, intravenous administration): Urinary excretion
